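Tested at 5 concentrations; 48 h exposure; 96-well plates; endpoints linearly interpolated, else capped at highest concentration. GI50 is the concentration that inhibits growth by half.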 Activity calls are given as the source filed them. Rule as the data show it: active = GI50 up to about 1.1 µM and inactive = higher.
Legend:
Test in all cases: inhibition of tumour cell growth, NCI panel, 48 h
CAKI-1 = tested on: CAKI-1
KM-20L2 = tested on: KM-20L2
OVCAR-8 = tested on: OVCAR-8
U-251 = tested on: U-251
HOP-92 = tested on: HOP-92
A549 = tested on: A549
DLD-1 = tested on: DLD-1
UACC-257 = tested on: UACC-257
CCRF-CEM = tested on: CCRF-CEM
DMS-273 = tested on: DMS-273
HT-29 = tested on: HT-29
OVCAR-5 = tested on: OVCAR-5
SK-MEL-28 = tested on: SK-MEL-28
NCI-H226 = tested on: NCI-H226
SW-620 = tested on: SW-620
DMS-114 = tested on: DMS-114
KM12 = tested on: KM12
SNB-78 = tested on: SNB-78
HL-60 = tested on: HL-60
HCT-116 = tested on: HCT-116
HCC 2998 = tested on: HCC 2998
SK-MEL-2 = tested on: SK-MEL-2
NCI-H460 = tested on: NCI-H460
SR = tested on: SR
SNB-19 = tested on: SNB-19
SK-OV-3 = tested on: SK-OV-3
XF498 = tested on: XF498
M19-MEL = tested on: M19-MEL
M14 = tested on: M14
TK-10 = tested on: TK-10
MOLT-4 = tested on: MOLT-4
ACHN = tested on: ACHN
NCI-H23 = tested on: NCI-H23
HOP-62 = tested on: HOP-62
SF-268 = tested on: SF-268
RPMI-8226 = tested on: RPMI-8226
NCI-H522 = tested on: NCI-H522
IGROV-1 = tested on: IGROV-1
A498 = tested on: A498
LXFL 529 = tested on: LXFL 529
OVCAR-4 = tested on: OVCAR-4
SF-539 = tested on: SF-539
UO-31 = tested on: UO-31
SN12C = tested on: SN12C
SK-MEL-5 = tested on: SK-MEL-5
UACC-62 = tested on: UACC-62
K562 = tested on: K562
COLO 205 = tested on: COLO 205
EKVX = tested on: EKVX
SNB-75 = tested on: SNB-75
HCT-15 = tested on: HCT-15
LOX IMVI = tested on: LOX IMVI
SF-295 = tested on: SF-295
Malme-3M = tested on: Malme-3M
RXF 393 = tested on: RXF 393
OVCAR-3 = tested on: OVCAR-3
786-0 = tested on: 786-0
HOP-18 = tested on: HOP-18

Measured: GI50

Cc1cccc(NC(=O)C(=O)C(C(=O)c2ccccc2F)C2OC(=O)c3ccccc32)c1Cl (configuration not stated)
22.4 µM: HCT-15
inactive: CAKI-1 61.4 µM | KM-20L2 29.6 µM | OVCAR-8 20.1 µM | U-251 14.5 µM | HOP-92 52.7 µM | A549 36.4 µM | DLD-1 27.9 µM | UACC-257 51.4 µM | CCRF-CEM 23.3 µM | DMS-273 24.7 µM | HT-29 31.5 µM | OVCAR-5 60 µM | SK-MEL-28 35.1 µM | NCI-H226 32.4 µM | SW-620 42.5 µM | DMS-114 17.5 µM | KM12 25 µM | SNB-78 32.6 µM | HL-60 20.1 µM | HCT-116 20.3 µM | HCC 2998 22.5 µM | SK-MEL-2 16.8 µM | NCI-H460 33.7 µM | SR 26.5 µM | SNB-19 31.1 µM | SK-OV-3 37.2 µM | XF498 19.7 µM | M19-MEL 22.4 µM | M14 43.1 µM | TK-10 63 µM | MOLT-4 30.3 µM | ACHN 53.1 µM | NCI-H23 24.2 µM | HOP-62 37.4 µM | SF-268 21.4 µM | RPMI-8226 26.9 µM | NCI-H522 22.4 µM | IGROV-1 56.8 µM | A498 60.7 µM | LXFL 529 24.3 µM | OVCAR-4 43.9 µM | SF-539 18.2 µM | UO-31 37.2 µM | SN12C 36.7 µM | SK-MEL-5 64 µM | UACC-62 23.2 µM | K562 28.6 µM | COLO 205 20 µM | EKVX 37.9 µM | SNB-75 20.5 µM | LOX IMVI 17.7 µM | SF-295 36.4 µM

O=C1CCCC1NC(=O)C(F)(F)F (configuration not stated)
inactive: CAKI-1 > 100 µM | RXF 393 > 100 µM | OVCAR-8 > 100 µM | U-251 > 100 µM | HOP-92 > 100 µM | A549 > 100 µM | DLD-1 > 100 µM | UACC-257 > 100 µM | CCRF-CEM > 100 µM | DMS-273 > 100 µM | HT-29 > 100 µM | OVCAR-5 > 100 µM | SK-MEL-28 > 100 µM | NCI-H226 > 100 µM | SW-620 > 100 µM | KM12 > 100 µM | SNB-78 > 100 µM | HL-60 > 100 µM | HCT-116 > 100 µM | SK-MEL-2 > 100 µM | NCI-H460 > 100 µM | SNB-19 > 100 µM | OVCAR-3 > 100 µM | SK-OV-3 > 100 µM | XF498 > 100 µM | 786-0 > 100 µM | M19-MEL > 100 µM | M14 > 100 µM | TK-10 > 100 µM | MOLT-4 > 100 µM | ACHN > 100 µM | NCI-H23 > 100 µM | HOP-62 > 100 µM | SF-268 > 100 µM | NCI-H522 > 100 µM | IGROV-1 > 100 µM | A498 > 100 µM | LXFL 529 > 100 µM | OVCAR-4 > 100 µM | SF-539 > 100 µM | UO-31 > 100 µM | SN12C > 100 µM | SK-MEL-5 > 100 µM | UACC-62 > 100 µM | K562 > 100 µM | EKVX > 100 µM | SNB-75 > 100 µM | SF-295 > 100 µM
active: Malme-3M 0.182 µM

CN(N=O)C(=O)N(N)CCCCC(NC(=O)OCc1ccccc1)C(=O)OCc1ccccc1 (configuration not stated)
90.4 µM: HCT-15
inactive: CAKI-1 25.6 µM | Malme-3M 40.1 µM | KM-20L2 > 100 µM | RXF 393 12.9 µM | OVCAR-8 33.7 µM | U-251 38.9 µM | HOP-92 10.7 µM | A549 81.8 µM | DLD-1 58.7 µM | UACC-257 18.7 µM | CCRF-CEM 14.3 µM | DMS-273 32.2 µM | HT-29 79.6 µM | OVCAR-5 > 100 µM | SK-MEL-28 > 100 µM | NCI-H226 22.2 µM | SW-620 65.9 µM | DMS-114 44 µM | KM12 38.8 µM | SNB-78 31.9 µM | HL-60 5.25 µM | HCT-116 29.8 µM | HCC 2998 18.2 µM | SK-MEL-2 91.6 µM | NCI-H460 32.5 µM | SNB-19 > 100 µM | OVCAR-3 23.1 µM | SK-OV-3 > 100 µM | XF498 8.41 µM | 786-0 18.5 µM | M19-MEL 36.1 µM | M14 23 µM | TK-10 > 100 µM | MOLT-4 18.9 µM | ACHN 19 µM | NCI-H23 14.6 µM | HOP-62 9.75 µM | RPMI-8226 > 100 µM | NCI-H522 11.7 µM | IGROV-1 49.2 µM | A498 69.7 µM | LXFL 529 53.2 µM | OVCAR-4 33.7 µM | SF-539 16 µM | UO-31 18.7 µM | SN12C 18.6 µM | SK-MEL-5 44.7 µM | UACC-62 18.5 µM | K562 45.4 µM | COLO 205 18.5 µM | EKVX > 100 µM | SNB-75 20.6 µM | LOX IMVI 17.9 µM | SF-295 75.9 µM

O=c1c2ccccc2n2n1CC(O)C2 (configuration not stated)
> 100 µM: HCT-15
active: UACC-62 0.641 µM
inactive: CAKI-1 > 100 µM | Malme-3M 4.56 µM | KM-20L2 > 100 µM | RXF 393 > 100 µM | HOP-18 > 100 µM | OVCAR-8 > 100 µM | U-251 > 100 µM | HOP-92 > 100 µM | A549 > 100 µM | DLD-1 > 100 µM | UACC-257 > 100 µM | CCRF-CEM > 100 µM | DMS-273 > 100 µM | HT-29 > 100 µM | OVCAR-5 > 100 µM | SK-MEL-28 > 100 µM | NCI-H226 > 100 µM | SW-620 > 100 µM | KM12 > 100 µM | SNB-78 9.35 µM | HL-60 > 100 µM | HCT-116 > 100 µM | HCC 2998 > 100 µM | SK-MEL-2 > 100 µM | NCI-H460 > 100 µM | SR > 100 µM | SNB-19 > 100 µM | OVCAR-3 > 100 µM | SK-OV-3 > 100 µM | XF498 > 100 µM | 786-0 > 100 µM | M19-MEL > 100 µM | M14 > 100 µM | TK-10 > 100 µM | MOLT-4 > 100 µM | ACHN 2.14 µM | NCI-H23 > 100 µM | HOP-62 > 100 µM | SF-268 > 100 µM | RPMI-8226 > 100 µM | NCI-H522 > 100 µM | IGROV-1 > 100 µM | OVCAR-4 > 100 µM | SF-539 > 100 µM | UO-31 > 100 µM | SN12C > 100 µM | SK-MEL-5 > 100 µM | K562 > 100 µM | COLO 205 > 100 µM | EKVX > 100 µM | SNB-75 > 100 µM | LOX IMVI > 100 µM | SF-295 > 100 µM
